“And” between values parts separate entries of the source, which are not always exact repeats. Identical values can stand only once. Toxic doses and inconclusive results are not listed. Rule for the calls: active = survival T/C of 150% or more; inactive = T/C below 125% in these data.
Test system: BDF1 mice, Lewis lung carcinoma iv, survival T/C
Test: NCI In Vivo Anticancer Drug Screen. Data for tumor model Lewis Lung Carcinoma (intravenous) in B6D2F1 (BDF1) mice
Details: endpoint: median survival time, higher = longer survival
Method: The antitumor activity of compounds was measured in mice bearing transplantable tumors. Survival or tumor size were measured and the results are expressed as the measurement made in the treated group (T) divided by the measurement made in the vehicle treated control group (C). The tumor model used in this assay is Lewis Lung Carcinoma (intravenous) in B6D2F1 (BDF1) mice

[1] = dose: 12.5 mg/kg/injection, schedule: Q01DX009 (ip), vehicle: saline
[2] = dose: 25.0 mg/kg/injection, schedule: Q01DX009 (ip), vehicle: saline
[3] = dose: 100.0 mg/kg/injection, schedule: Q01DX009 (ip), vehicle: saline with Tween-80
[4] = dose: 200.0 mg/kg/injection, schedule: Q01DX009 (ip), vehicle: saline with Tween-80

Measured: T/C

S=c1c2[nH]cnc2ncn1CCSC1=NC=NC2=NC=NC21 (stereo not given)
inactive: [1] 115 % of control | [2] 100 % of control | dose: 50.0 mg/kg/injection, schedule: Q01DX009 (ip), vehicle: saline 96 % of control

O=C(CCl)N1c2ccccc2Oc2cc3ccccc3cc21
inactive: [3] 107 % of control | [4] 116 % of control | dose: 400.0 mg/kg/injection, schedule: Q01DX009 (ip), vehicle: saline with Tween-80 111 % of control

Cc1ccc[c]([Hg][Cl])c1N=Nc1ccccc1
inactive: dose: 0.78 mg/kg/injection, schedule: Q01DX009 (ip), vehicle: saline with Tween-80 100 % of control | dose: 1.56 mg/kg/injection, schedule: Q01DX009 (ip), vehicle: saline with Tween-80 105 % of control | dose: 3.12 mg/kg/injection, schedule: Q01DX009 (ip), vehicle: saline with Tween-80 90 % of control | dose: 6.25 mg/kg/injection, schedule: Q01DX009 (ip), vehicle: saline with Tween-80 115 % of control | dose: 12.5 mg/kg/injection, schedule: Q01DX009 (ip), vehicle: saline with Tween-80 94 % of control

C(COCCOCC1CO1)OCCOCC1CO1 (stereo not given)
inactive: dose: 25.0 mg/kg/injection, schedule: Q01DX009 (ip), vehicle: saline with Tween-80 107 % of control | dose: 50.0 mg/kg/injection, schedule: Q01DX009 (ip), vehicle: saline with Tween-80 104 % of control | [3] 98 % of control | [4] 112 % of control

COc1ccc2c(c1)/C(=C/CCN(C)C)c1ccccc1S2
inactive: dose: 6.25 mg/kg/injection, schedule: Q01DX009 (ip), vehicle: saline 114 % of control | [1] 98 % of control and 105 % of control | [2] 106 % of control and 110 % of control

CC(=O)O[C@H]1C(=O)[C@@]2(C)[C@H]([C@H](OC(=O)c3ccccc3)[C@]3(O)C[C@H](OC(=O)[C@H](O)[C@@H](NC(=O)c4ccccc4)c4ccccc4)C(C)=C1C3(C)C)[C@]1(OC(C)=O)CO[C@@H]1C[C@@H]2O
inactive: dose: 25.9 mg/kg/injection, schedule: Q04DX003 (ip), vehicle: Klucel (hydroxypropylcellulose) (HPC) 93 % of control | dose: 43.2 mg/kg/injection, schedule: Q04DX003 (ip), vehicle: Klucel (hydroxypropylcellulose) (HPC) 86 % of control

From PubChem BioAssay AID274 (DTP/NCI, 2004)
